Assays:
CYP2C19 = biological target: T1, CYP2C19 (Homo sapiens, UniProt P33261); assay: CYPs inhibition in pooled human liver microsomes, probe substrate S-mephenytoin; type: in vitro ADME
T1 construct: 0.2 mg/mL human liver microsomes was pre-incubated in 180 μL reaction mixture; from tissue; host or cells: pooled human liver microsomes
Procedure: (§1) The inhibitory potential of test articles in pooled human liver microsomes was evaluated by the method using a cocktail of CYP substrates. […] For the negative control well, the test articles was replaced with 20 μL reaction buffer. After 10 min of pre-incubation at 37° C., 20 μL 10 mM NADPH cofactor was added to the pre-reaction mixtures. After another 10 min incubation, the reaction was stopped by adding 400 μL of ice cold acetonitrile solution containing tolbutamide and labetalol served as internal standards. The incubation mixtures were centrifuged at 4000×g for 20 min, and then the supernatants were analyzed by LC-MS/MS after dilution. SigmaPlot was applied to plot % control activity versus the test compound concentrations, and for non-linear regression analysis of the data. IC50 values of test articles were determined using 3-parameter logistic equation.

JAK2 = biological target: T2, JAK2 (Homo sapiens, UniProt O60674); assay: JAK2 microfluidic kinase assay (Caliper EZ Reader II, FAM labeled peptide substrate); type: biochemical
T2 construct: purchased Carna Biosciences
T2 sequence (O60674 whole entry): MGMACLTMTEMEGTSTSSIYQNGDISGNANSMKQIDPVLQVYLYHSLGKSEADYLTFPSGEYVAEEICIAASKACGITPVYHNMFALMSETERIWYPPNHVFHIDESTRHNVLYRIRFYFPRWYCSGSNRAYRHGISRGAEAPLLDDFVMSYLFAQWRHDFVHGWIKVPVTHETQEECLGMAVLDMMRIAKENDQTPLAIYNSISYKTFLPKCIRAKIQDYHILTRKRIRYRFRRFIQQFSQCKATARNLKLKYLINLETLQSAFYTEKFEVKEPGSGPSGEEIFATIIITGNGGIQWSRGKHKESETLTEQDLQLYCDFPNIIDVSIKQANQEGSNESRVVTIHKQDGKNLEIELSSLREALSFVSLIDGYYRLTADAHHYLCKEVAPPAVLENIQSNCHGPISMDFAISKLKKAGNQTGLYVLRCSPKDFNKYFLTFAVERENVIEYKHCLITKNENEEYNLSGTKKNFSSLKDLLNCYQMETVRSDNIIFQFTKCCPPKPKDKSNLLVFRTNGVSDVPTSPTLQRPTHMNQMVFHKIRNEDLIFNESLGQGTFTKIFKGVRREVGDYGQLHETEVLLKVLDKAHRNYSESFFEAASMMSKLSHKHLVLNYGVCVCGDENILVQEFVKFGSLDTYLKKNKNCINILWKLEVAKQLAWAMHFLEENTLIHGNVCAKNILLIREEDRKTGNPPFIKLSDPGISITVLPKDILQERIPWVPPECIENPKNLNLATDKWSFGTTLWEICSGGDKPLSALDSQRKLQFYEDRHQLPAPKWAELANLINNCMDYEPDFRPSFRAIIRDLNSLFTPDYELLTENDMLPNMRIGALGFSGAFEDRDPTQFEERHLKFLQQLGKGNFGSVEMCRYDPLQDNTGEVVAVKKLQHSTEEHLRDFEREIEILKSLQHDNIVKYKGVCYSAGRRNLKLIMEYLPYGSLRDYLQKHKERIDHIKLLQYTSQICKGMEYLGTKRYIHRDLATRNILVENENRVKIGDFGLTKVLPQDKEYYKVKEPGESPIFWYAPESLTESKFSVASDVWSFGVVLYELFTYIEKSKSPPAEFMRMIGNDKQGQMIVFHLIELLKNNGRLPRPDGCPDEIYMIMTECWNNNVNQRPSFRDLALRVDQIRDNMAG
Summary of the method: (§2)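 3-fold serial dilutions, top 5 μM, 1% DMSO final; 10 min preincubation with enzyme, RT. Buffer: 50 mM HEPES, 0.01% Brij35, 10 mM MgCl2, 2 mM DTT. Enzyme batch tuned to 10% peptide conversion. EDTA stop, mobility-shift readout, IC50 fit.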

CYP2D6 = biological target: T3, CYP2D6 (Homo sapiens, UniProt P10635); assay: CYPs inhibition in pooled human liver microsomes, probe substrate Dextromethorphan; type: in vitro ADME
T3 construct: 0.2 mg/mL human liver microsomes was pre-incubated in 180 μL reaction mixture; from tissue; host or cells: pooled human liver microsomes
T3 sequence (P10635 whole entry): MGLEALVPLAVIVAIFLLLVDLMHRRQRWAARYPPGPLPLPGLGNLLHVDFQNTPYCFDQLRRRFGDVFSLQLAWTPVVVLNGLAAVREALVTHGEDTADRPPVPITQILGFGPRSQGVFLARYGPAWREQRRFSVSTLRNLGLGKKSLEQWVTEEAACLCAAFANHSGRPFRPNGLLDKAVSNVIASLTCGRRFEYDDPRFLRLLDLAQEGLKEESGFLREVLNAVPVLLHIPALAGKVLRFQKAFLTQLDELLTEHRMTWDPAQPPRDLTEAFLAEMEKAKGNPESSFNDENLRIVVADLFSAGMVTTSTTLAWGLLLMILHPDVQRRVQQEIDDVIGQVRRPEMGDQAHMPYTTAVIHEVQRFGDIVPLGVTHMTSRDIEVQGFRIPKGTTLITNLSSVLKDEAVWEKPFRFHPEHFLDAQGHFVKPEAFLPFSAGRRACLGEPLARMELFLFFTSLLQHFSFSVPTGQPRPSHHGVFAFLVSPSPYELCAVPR
Procedure: as §1

CYP2C9 = biological target: T4, CYP2C9 (Homo sapiens, UniProt P11712); assay: CYPs inhibition in pooled human liver microsomes, probe substrate Diclofenac; type: in vitro ADME
T4 construct: 0.2 mg/mL human liver microsomes was pre-incubated in 180 μL reaction mixture; from tissue; host or cells: pooled human liver microsomes
T4 sequence (P11712 whole entry): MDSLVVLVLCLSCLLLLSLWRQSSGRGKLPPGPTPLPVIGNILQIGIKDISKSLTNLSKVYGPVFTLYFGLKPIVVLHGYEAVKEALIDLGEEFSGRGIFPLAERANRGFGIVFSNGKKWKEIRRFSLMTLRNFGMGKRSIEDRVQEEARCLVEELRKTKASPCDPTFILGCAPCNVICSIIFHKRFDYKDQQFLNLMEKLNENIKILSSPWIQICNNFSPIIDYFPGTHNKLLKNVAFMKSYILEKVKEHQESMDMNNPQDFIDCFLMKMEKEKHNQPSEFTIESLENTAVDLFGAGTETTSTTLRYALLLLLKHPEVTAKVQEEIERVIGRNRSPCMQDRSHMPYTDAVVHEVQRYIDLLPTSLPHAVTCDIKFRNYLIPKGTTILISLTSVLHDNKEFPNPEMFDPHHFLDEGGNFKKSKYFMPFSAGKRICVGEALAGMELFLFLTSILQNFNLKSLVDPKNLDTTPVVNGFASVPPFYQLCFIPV
Procedure: as §1

[1] = Liver microsomes study, Phase I stability (HLM); type: in vitro ADME, human; settings: pH 7.4; human liver microsomes 0.5 mg/mL, 1 μM test article; read-out: HLM Clint
Summary of the method: (§3)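 Rat or human liver microsomes were incubated with test article, and reactions started with an NADPH regenerating system. Samples at 0, 10, 30 and 90 minutes were quenched with cold acetonitrile and analyzed by LC/MS/MS. T½ and CLint came from the ln(% remaining) versus time slope, scaled by protein concentration.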

JAK2V617F = biological target: T5, JAK2V617F (Homo sapiens, UniProt O60674, V617F); assay: JAK2V617F microfluidic kinase assay (Caliper EZ Reader II, FAM labeled peptide substrate); type: biochemical; settings: JAK2V617F 2.5 nM, 1 mM ATP
T5 construct: purchased Carna Biosciences
T5 sequence (O60674 whole entry V617F): as the sequence (O60674 whole entry) above, with V617F counted along it
Summary of the method: as §2

CYP1A2 = biological target: T6, CYP1A2 (Homo sapiens, UniProt P05177); assay: CYPs inhibition in pooled human liver microsomes, probe substrate Phenacetin; type: in vitro ADME
T6 construct: 0.2 mg/mL human liver microsomes was pre-incubated in 180 μL reaction mixture; from tissue; host or cells: pooled human liver microsomes
T6 sequence (P05177 1-516): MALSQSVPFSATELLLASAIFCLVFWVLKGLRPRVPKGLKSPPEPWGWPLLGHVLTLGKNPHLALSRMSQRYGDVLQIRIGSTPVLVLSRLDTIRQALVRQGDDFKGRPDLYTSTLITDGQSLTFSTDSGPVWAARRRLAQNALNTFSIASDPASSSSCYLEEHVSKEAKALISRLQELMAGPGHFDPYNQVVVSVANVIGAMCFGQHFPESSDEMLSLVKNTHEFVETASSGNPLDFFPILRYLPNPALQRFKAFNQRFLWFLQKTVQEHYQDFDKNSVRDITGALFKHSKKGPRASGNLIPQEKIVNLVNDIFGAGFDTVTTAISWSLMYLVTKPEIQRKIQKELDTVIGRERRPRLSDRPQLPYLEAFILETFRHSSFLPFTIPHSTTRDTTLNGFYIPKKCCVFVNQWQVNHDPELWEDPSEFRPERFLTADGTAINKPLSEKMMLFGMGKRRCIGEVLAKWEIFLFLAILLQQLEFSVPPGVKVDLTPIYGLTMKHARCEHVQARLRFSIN
Procedure: as §1

[2] = Liver microsomes study, Phase I stability (RLM); type: in vitro ADME, rat; settings: pH 7.4; rat liver microsomes 0.5 mg/mL, 1 μM test article; read-out: RLM Clint
Summary of the method: as §3

CYP3A4 = biological target: T7, CYP3A4 (Homo sapiens, UniProt P08684); assay: CYPs inhibition in pooled human liver microsomes, probe substrate Midazolam; type: in vitro ADME
T7 construct: 0.2 mg/mL human liver microsomes was pre-incubated in 180 μL reaction mixture; from tissue; host or cells: pooled human liver microsomes
Procedure: as §1

JAK1 = biological target: T8, JAK1 (Homo sapiens, UniProt P23458); assay: JAK1 microfluidic kinase assay (Caliper EZ Reader II, FAM labeled peptide substrate); type: biochemical
T8 construct: purchased Carna Biosciences
T8 sequence (P23458 whole entry): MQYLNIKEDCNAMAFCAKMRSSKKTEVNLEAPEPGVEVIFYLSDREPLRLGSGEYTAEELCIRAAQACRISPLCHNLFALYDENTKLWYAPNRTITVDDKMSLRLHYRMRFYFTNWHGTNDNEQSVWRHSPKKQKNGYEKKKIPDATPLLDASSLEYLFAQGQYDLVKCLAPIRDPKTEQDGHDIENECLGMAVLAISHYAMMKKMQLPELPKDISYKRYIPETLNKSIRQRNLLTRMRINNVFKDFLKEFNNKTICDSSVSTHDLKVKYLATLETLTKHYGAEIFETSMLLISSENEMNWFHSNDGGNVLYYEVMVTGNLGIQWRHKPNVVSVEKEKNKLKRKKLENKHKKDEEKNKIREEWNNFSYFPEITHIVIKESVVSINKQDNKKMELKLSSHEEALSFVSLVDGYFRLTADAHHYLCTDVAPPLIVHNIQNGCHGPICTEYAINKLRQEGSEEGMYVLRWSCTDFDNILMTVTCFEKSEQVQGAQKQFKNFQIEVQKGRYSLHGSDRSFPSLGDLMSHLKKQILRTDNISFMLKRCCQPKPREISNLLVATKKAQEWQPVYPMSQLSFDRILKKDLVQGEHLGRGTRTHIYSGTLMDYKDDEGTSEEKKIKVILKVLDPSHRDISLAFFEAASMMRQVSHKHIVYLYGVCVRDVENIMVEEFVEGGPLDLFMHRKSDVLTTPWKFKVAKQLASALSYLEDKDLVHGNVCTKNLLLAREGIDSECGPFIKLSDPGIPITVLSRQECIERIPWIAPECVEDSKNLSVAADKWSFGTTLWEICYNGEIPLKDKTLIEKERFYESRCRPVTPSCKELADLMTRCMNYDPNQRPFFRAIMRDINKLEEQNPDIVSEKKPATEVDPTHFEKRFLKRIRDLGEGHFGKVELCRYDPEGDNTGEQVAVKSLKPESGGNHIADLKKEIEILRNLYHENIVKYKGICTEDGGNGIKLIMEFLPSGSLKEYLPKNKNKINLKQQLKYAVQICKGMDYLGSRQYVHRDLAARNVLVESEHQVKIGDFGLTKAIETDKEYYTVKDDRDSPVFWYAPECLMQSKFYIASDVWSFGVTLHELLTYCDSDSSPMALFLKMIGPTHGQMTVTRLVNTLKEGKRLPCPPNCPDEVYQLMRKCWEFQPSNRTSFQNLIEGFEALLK
Summary of the method: as §2

TYK2 = biological target: T9, TYK2 (Homo sapiens, UniProt P29597); assay: TYK2 microfluidic kinase assay (Caliper EZ Reader II, FAM labeled peptide substrate); type: biochemical
T9 construct: purchased Carna Biosciences
T9 sequence (P29597 whole entry): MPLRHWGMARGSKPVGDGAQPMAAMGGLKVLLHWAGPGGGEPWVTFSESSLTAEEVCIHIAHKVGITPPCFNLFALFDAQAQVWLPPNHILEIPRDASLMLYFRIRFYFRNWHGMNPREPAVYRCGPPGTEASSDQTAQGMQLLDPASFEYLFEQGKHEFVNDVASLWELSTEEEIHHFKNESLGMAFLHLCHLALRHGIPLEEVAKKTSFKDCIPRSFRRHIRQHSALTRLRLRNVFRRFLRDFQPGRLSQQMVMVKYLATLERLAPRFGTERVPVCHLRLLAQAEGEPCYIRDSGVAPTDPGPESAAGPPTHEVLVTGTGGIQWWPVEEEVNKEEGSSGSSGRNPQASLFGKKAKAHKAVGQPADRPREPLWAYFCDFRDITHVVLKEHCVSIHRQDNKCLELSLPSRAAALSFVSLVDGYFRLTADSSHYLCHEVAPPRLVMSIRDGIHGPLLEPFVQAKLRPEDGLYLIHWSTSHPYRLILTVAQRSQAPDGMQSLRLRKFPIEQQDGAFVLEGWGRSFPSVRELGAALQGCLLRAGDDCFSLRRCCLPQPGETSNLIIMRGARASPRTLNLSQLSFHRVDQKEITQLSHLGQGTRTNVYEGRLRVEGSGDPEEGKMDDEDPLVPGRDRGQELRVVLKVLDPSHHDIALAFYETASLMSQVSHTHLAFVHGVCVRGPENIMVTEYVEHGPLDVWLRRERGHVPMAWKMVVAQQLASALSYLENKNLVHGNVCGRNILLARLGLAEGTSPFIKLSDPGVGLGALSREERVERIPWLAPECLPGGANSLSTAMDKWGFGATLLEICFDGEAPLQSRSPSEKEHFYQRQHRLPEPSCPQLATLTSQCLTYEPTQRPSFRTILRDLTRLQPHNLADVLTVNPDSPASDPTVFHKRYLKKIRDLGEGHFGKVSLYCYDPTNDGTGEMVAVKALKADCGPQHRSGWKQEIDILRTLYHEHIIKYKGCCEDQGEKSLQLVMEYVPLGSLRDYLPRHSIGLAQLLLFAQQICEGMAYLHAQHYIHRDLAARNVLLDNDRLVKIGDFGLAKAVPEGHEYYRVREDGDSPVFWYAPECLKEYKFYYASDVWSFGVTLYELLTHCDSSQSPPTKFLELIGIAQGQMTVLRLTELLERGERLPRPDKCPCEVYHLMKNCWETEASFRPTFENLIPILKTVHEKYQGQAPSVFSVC
Summary of the method: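 IC50s derive from dose-response of % inhibition of FAM-peptide phosphorylation, read by microfluidic mobility shift after 50 mM EDTA stop. Enzyme pre-incubated 10 min with 3-fold serial dilutions (top 5 μM, 1% DMSO) in HEPES/Brij35/MgCl2/DTT buffer, ~10% conversion; run times 120, 20, 30, 10 min for JAK1, JAK2, JAK2V617F, TYK2.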

[3] = IC50 JAK2 ([…]) (1 mM ATP), 1 mM ATP
[4] = IC50 JAK2 ([…]) (Km ATP), Km ATP
[5] = IC50 JAK1 (10 nM) (Km ATP), JAK1 10 nM, Km ATP
[6] = IC50 JAK1 (5 nM) (1 m MATP), JAK1 5 nM, 1 mM ATP
[7] = IC50 TYK2 ([…]) (1 mM ATP), TYK2 […], 1 mM ATP

T1 sequence (P33261 whole entry): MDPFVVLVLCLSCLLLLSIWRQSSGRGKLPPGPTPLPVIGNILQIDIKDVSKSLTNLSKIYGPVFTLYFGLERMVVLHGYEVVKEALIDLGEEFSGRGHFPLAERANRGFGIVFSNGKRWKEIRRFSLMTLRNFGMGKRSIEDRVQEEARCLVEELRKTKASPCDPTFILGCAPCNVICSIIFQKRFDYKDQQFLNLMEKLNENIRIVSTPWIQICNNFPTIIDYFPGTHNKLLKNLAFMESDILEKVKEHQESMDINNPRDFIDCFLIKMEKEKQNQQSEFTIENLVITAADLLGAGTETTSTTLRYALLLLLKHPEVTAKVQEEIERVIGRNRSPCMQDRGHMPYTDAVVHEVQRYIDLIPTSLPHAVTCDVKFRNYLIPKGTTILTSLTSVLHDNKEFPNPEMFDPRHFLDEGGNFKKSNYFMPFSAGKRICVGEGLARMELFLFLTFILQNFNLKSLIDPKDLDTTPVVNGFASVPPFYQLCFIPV

IC50 (CYP2C19) [µM]	IC50 (JAK2; [3]) [µM]	IC50 (JAK2; [4]) [µM]	IC50 (CYP2D6) [µM]	IC50 (CYP2C9) [µM]	microsomal CLint at 1 μM [1] [µL/min/mg]	IC50 (JAK2V617F) [µM]	IC50 (CYP1A2) [µM]	microsomal CLint at 1 μM [2] [µL/min/mg]	IC50 (CYP3A4) [µM]	IC50 (JAK1; [5]) [µM]	IC50 (TYK2; IC50 TYK2 (10 nM) (Km ATP), TYK2 10 nM, Km ATP) [µM]	IC50 (JAK1; [6]) [µM]	IC50 (TYK2; [7]) [µM]	SMILES
> 50	0.0246		> 50	> 50	5.05		> 50	14.8	> 50			0.00193	0.00174	CC[C@@H](C#N)NC(=O)c1ccc(-c2nc(Nc3cnn(CCO)c3)ncc2C)cc1 [Example 172, (S)—N-(1-cyanopropyl)-4-(2-((1-(2-hydroxyethyl)-1H-pyrazol-4-yl)amino)-5-methylpyrimidin-4-yl)benzamide]
> 50	0.0487		19	> 50			44.8		21.5			0.00433	0.0482	CC[C@@H](C#N)NC(=O)c1ccc(-c2nc(Nc3cnn(CC#N)c3)ncc2C)cc1 [Example 55, (S)-4-(2-((1-(cyanomethyl)-1H-pyrazol-4-yl)amino)-5-methylpyrimidin-4-yl)-N-(1-cyanopropyl)benzamide]
> 50	0.0271		> 50	> 50			> 50		> 50			0.00286	0.0273	Cc1cnc(Nc2cnn(CCO)c2)nc1-c1ccc(C(=O)N[C@@H](C)C#N)cc1 [Example 200, (S)—N-(1-cyanoethyl)-4-(2-((1-(2-hydroxyethyl)-1H-pyrazol-4-yl)amino)-5-methylpyrimidin-4-yl)benzamide]

Further lines, the compound ahead of its results:

SMILES	IC50 (CYP2C19) [µM]	IC50 (JAK2; [3]) [µM]	IC50 (JAK2; [4]) [µM]	IC50 (CYP2D6) [µM]	IC50 (CYP2C9) [µM]	microsomal CLint at 1 μM [1] [µL/min/mg]	IC50 (JAK2V617F) [µM]	IC50 (CYP1A2) [µM]	microsomal CLint at 1 μM [2] [µL/min/mg]	IC50 (CYP3A4) [µM]	IC50 (JAK1; [5]) [µM]	IC50 (TYK2; IC50 TYK2 (10 nM) (Km ATP), TYK2 10 nM, Km ATP) [µM]	IC50 (JAK1; [6]) [µM]	IC50 (TYK2; [7]) [µM]
CC(=O)N1CCC(n2cc(Nc3ncc(C)c(-c4ccc(C(=O)NCC#N)cc4)n3)cn2)CC1 [Example 20, 4-(2-((1-(1-Acetylpiperidin-4-yl)-1H-pyrazol-4-yl)amino)-5-methylpyrimidin-4-yl)-N-(cyanomethyl)benzamide]	> 50	0.0003	0.00025	> 50	> 50	< 9.6	0.0137	> 50	< 9.6	> 50				
Cc1cnc(Nc2cnn(C3CCN(CC#N)CC3)c2)nc1-c1ccc(C(=O)NCC#N)cc1 [Example 1, N-(Cyanomethyl)-4-(2-((1-(1-(cyanomethyl)piperidin-4-yl)-1H-pyrazol-4-yl)amino)-5-methylpyrimidin-4-yl)benzamide]	> 50	0.00134	0.00042	> 50	> 50	14.9	0.0378	> 50	15	> 50	0.00179	0.00084		
Cc1cnc(Nc2cnn(C3CCN(CC(F)F)CC3)c2)nc1-c1ccc(C(=O)NCC#N)cc1 [Example 19, N-(Cyanomethyl)-4-(2-((1-(1-(2,2-difluoroethyl)piperidin-4-yl)-1H-pyrazol-4-yl)amino)-5-methylpyrimidin-4-yl)benzamide]	> 50		0.00065	> 50	> 50	33.7		> 50	49.2	> 50	0.00192			

— US12595253B2, “Benzamides of pyrazolylamino-pyrimidinyl derivatives, and compositions and methods thereof” (LYNK PHARMACEUTICALS CO. LTD., priority 2019, dated 2026)
